Experiments:
SD rats [1] = assay: Assay for the facilitatory effect on urinary glucose excretion, Method B (intravenous); assay type: in vivo, rat; conditions: oral glucose 2 g/kg, 24 hours, per 200 g of body weight
Method: (§1) Assay for the Facilitatory Effect on Urinary Glucose Excretion
As experimental animal, overnight fasted SD rats (SLC, male, 7 weeks of age, 180–220 g) were used. A test compound (10 mg) was suspended or dissolved in 300 μL of ethanol and dissolved by adding of 1.2 mL of polyethylene glycol 400 and 1.5 mL of saline and then 3.3 mg/mL solution was prepared. A part of this solution was diluted with the solvent (saline:polyethylene glycol 400:ethanol=5:4:1) and then each solution at the concentration of 3.3, 0.33 or 0.033 (mg/mL) was prepared. After the body weights of the rats were measured, the test compound solution was administrated by intravenous injection to the tail vein at the dose of 3 mL/kg (10, 1 and 0.1 mg/kg). For the control, just only the solvent (saline:polyethylene glycol 400:ethanol=5:4:1) was administrated by intravenous injection to the tail vein at the dose of 3 mL/kg. Immediately after this intravenous administration, 200 g/L glucose solution was orally administered at the dose of 10 mL/kg (2 g/kg). The intravenous administration was performed with 26G needle and 1 mL syringe. The oral administration was performed with gastric tube for rat and 2.5 mL syringe. The head count in one group was 3. Collection of urine was performed in metabolic cage after the glucose administration was finished. The sampling time for collection of urine was 24 hours after the glucose administration. After collection of urine was finished, the urine volume was recorded and the urinary glucose concentration was measured. The glucose concentration was measured with a kit for laboratory test: Glucose B-Test WAKO (Wako Pure Chemical Industries, Ltd.). The amount of urinary glucose excretion in 24 hours per 200 g of body weight was calculated from urine volume, urinary glucose concentration and body weight.

ICR mice [2] = assay: Acute toxicity test, Method B (subcutaneous); assay type: in vivo; conditions: 600 mg/kg subcutaneous, male ICR mice, 5 animals, observation until 24 hours
Method: By adding of the solvent (saline:polyethylene glycol 400:ethanol=5:4:1) to the test compound, 200 mg/mL suspension was prepared. As experimental animal, male 5 weeks of age ICR mice fasted for 4 hours (Clea Japan, 26–33 g, 5 animals in each group) were used. The test suspension described above was subcutaneously administrated to the experimental animals described above at the dose of 3 mL/kg (600 mg/kg) and then observation was performed until 24 hours after the administration.

SD rats [3] = assay: Assay for the facilitatory effect on urinary glucose excretion, Method A (subcutaneous); assay type: in vivo, rat; conditions: oral glucose 2 g/kg, 4 hours, per 1 body
Method: as §1
As experimental animal, overnight fasted SD rats (SLC, male, 5 weeks of age, 120–150 g) were used. Test compound (25.40 mg) was suspended in 762 μL of ethanol and dissolved by adding of 3.048 mL of polyethylene glycol 400 and 3.81 mL of saline and then 3.3 mg/mL solution was prepared. A part of this solution was diluted with the solvent (saline:polyethylene glycol 400:ethanol=5:4:1) and then each solution at the concentration of 3.3, 1 or 0.33 (mg/mL) was prepared. Each of these solutions was subcutaneously administrated to the rats at the dose of 3 mL/kg (10, 3 and 1 mg/kg). For the control, just only the solvent (saline:polyethylene glycol 400:ethanol=5:4:1) was subcutaneously administrated at the dose of 3 mL/kg. Immediately after this subcutaneous administration, 200 g/L glucose solution was orally administered at the dose of 10 mL/kg (2 g/kg). The subcutaneous administration was performed with 26G needle and 1 mL syringe. The oral administration was performed with gastric tube for rat and 2.5 mL syringe. The head count in one group was 3. Collection of urine was performed in metabolic cage after these administrations were finished. The sampling time for collection of urine was 4 hours after the glucose administration. After collection of urine was finished, the urine volume was recorded and the urinary glucose concentration was measured. The glucose concentration was measured with a kit for laboratory test: Glucose B-Test WAKO (Wako Pure Chemical Industries, Ltd.). The amount of urinary glucose excretion in 4 hours per 1 body was calculated from urine volume and urinary glucose concentration.

ICR mice [4] = assay: Acute toxicity test, Method A (oral); assay type: in vivo; conditions: 1000 mg/kg oral, male ICR mice, 5 animals, observation until 24 hours
Method: By adding of 0.5% sodium carboxymethylcellulose solution to the test compound, 100 mg/mL suspension was prepared. As experimental animal, male 6–7 weeks of age ICR mice fasted for 4 hours (Clea Japan, 28–33 g, 5 animals in each group) were used. The test suspension described above was orally administrated to the experimental animals described above at the dose of 10 mL/kg (1000 mg/kg) and then observation was performed until 24 hours after the administration.

human SGLT2 = biological target: T1, human SGLT2 (Homo sapiens, UniProt P31639, I433V); assay: Assay for inhibitory effect on human SGLT2 activity (uptake of methyl-α-D-glucopyranoside in COS-7 cells expressing transiently human SGLT2); assay type: cell-based
T1 construct: expressed in transfected cells; host or cells: COS-7 cells (RIKEN CELL BANK RCB0539), transient electroporation of plasmid KL29
T1 sequence (P31639 1-672 I433V): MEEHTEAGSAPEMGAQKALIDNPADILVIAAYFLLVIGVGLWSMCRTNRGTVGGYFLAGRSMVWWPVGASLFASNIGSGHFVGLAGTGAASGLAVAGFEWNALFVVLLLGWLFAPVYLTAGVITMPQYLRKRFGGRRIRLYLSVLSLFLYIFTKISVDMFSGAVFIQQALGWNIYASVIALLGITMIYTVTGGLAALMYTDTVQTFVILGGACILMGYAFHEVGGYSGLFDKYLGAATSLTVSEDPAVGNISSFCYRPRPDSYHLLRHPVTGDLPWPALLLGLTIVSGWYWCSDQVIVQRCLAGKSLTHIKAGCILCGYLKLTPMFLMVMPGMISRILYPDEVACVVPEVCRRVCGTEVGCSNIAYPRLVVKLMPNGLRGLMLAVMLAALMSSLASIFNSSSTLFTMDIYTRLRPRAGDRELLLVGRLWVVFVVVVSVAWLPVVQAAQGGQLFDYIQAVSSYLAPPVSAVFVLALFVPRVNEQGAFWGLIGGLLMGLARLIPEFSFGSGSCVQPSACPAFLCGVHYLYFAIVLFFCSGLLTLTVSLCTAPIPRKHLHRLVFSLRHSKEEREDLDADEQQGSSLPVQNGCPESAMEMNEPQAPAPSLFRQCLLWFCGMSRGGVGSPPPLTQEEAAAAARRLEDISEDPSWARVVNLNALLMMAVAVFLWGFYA
Method: Assay for Inhibitory Effect on Human SGLT2 Activity
1) Construction of the Plasmid Vector Expressing Human SGLT2
Preparation of the cDNA library for PCR amplification was performed by reverse transcription of a total RNA deprived from human kidney (Ori gene) with oligo dT as the primer, using Super Script preamplification system (Gibco-BRL: LIFE TECHNOLOGIES). The DNA fragment coding for human SGLT2 was amplified by the PCR reaction, in which the human kidney cDNA library described above was used as the template and the following oligo nucleotides 0702F and 0712R, presented as sequence number 1 and 2 respectively, were used as the primers. The amplified DNA fragment was ligated into pCR (Invitrogen), a vector for cloning, according to standard method of the kit. The Escherichia coli HB101 was transformed according to usual method and then selection of the transformants was performed on the LB agar medium containing 50 μg/mL of kanamycin. […] After plasmid DNA was extracted and purified from this transformant, the base sequence of the DNA fragment inserted at the multi-cloning sites of the vector pcDNA3.1 (−) Myc/His-B was analyzed. […]

normal mice = conditions: J. Med. Chem., Vol. 39, pp. 3920–3928 (1996); cited from earlier work

Structure (SMILES) | Amount of Urinary Glucose Excretion (SD rats [1]; 0.1 mg/kg intravenous) | Amount of Urinary Glucose Excretion (SD rats [1]; 1 mg/kg intravenous) | Amount of Urinary Glucose Excretion (SD rats [1]; 10 mg/kg intravenous) | Death number (ICR mice [2]) | Amount of Urinary Glucose Excretion (SD rats [3]; 1 mg/kg subcutaneous) | Amount of Urinary Glucose Excretion (SD rats [3]; 3 mg/kg subcutaneous) | Amount of Urinary Glucose Excretion (SD rats [3]; 10 mg/kg subcutaneous) | Death number (ICR mice [4]) | IC50 (human SGLT2; COS-7 cells expressing transiently human SGLT2, uptake of methyl-α-D-(U-14C)glucopyranoside, 37° C., 2 hours) | inhibitory activity in human SGLT2 (in words) (human SGLT2; assay for inhibitory effect on human SGLT2 activity) | amount of excreted glucose (normal mice)
Cc1[nH]nc(O[C@@H]2O[C@H](CO)[C@@H](O)[C@H](O)[C@H]2O)c1Cc1ccc(OC(C)C)cc1 [Example 35, 3-(β-D-Glucopyranosyloxy)-4-[(4-isopropoxyphenyl)methyl]-5-methyl-1H-pyrazole] | 16 mg | 74 mg | 188 mg | 0/5 | – | – | – | – | – | – | –
Cc1[nH]nc(O[C@@H]2O[C@H](CO)[C@@H](O)[C@H](O)[C@H]2O)c1Cc1ccc(C(C)C)cc1 [Example 45, 3-(β-D-Glucopyranosyloxy)-4-[(4-isopropylphenyl)methyl]-5-methyl-1H-pyrazole] | 2 mg | 45 mg | 132 mg | – | 22.1 mg | 83.2 mg | 153.3 mg | 0/5 | – | – | –
CSc1ccc(Cc2c(C(F)(F)F)[nH][nH]c2=O)cc1 [WAY-123783] | – | – | – | – | – | – | – | – | > 100 µM | extremely weak inhibitory activity | increased

Reference: US7056892B2, “Glucopyranosyloxypyrazole derivatives, medicinal compositions containing the same and intermediates in the production thereof” (Kissei Pharmaceutical Co., Ltd., priority 1999, dated 2006)
